# According to EP0039809A2, “2-Amino-5-halogen-benzothiazoles, process for preparing them and medicines containing them” (Dr. Karl Thomae GmbH, priority 1980, dated 1981):
# Read-outs that look alike come from different tables or passages of the source.
# Tests used:
# [1] = Acute toxicity in the mouse; conditions: in vivo, oral (gavage), Chbb:NMRI(SPF) mice of both sexes, deaths within 14 days, read-out: Akute Toxizität Maus [LD50]
# Description: 4. Akute Toxizität an der Maus
# Die Bestimmung der akuten Toxizität erfolgte an Chbb:NMRI (SPF)-Mäusen beider Geschlechter mit einem mittleren Gewicht von 20 g. Die Prüfsubstanz wurde als Verreibung in 1 %iger Methylzellulose (0,5 ml/10 g Tier) per Schlundsonde verabfolgt. Die Berechnung der LD50 erfolgte (soweit möglich) nach LITCHFIELD u. WILCOXON (J. Pharmacol. exp. Therap. 96, 99 (1949)) aus dem Prozentsatz der Tiere, die nach den verschiedenen Dosen innerhalb von 14 Tagen verstarben.
# [2] = test system: Körpertemperatur der Ratte; experiment: Effect on body temperature of the rat (rectal temperature lowering); type: in vivo; conditions: oral (gavage), Chbb:THOM rats, dose lowering body temperature by 1,5°C, read-out: Körpertemperatursenkg. Ratte [ED-1,5°C]
# Description: 3. Wirkung auf die Körpertemperatur der Ratte
# Die Prüfung der temperatursenkenden Wirkung erfolgte durch; die Kontrolle des Verlaufes der rektal gemessenen Körper- temperatur von Chbb:THOM-Ratten mit einem Gewicht zwischen 125-150 g über im Rektum verweilende Thermoelemente. Die Prüfsubstanz wurde als Verreibung in 1 %iger Methylzellulose (1,0 ml/100 g Tier) per Schlundsonde beigebracht. Aus den nach Gabe der verschiedenen Dosen der Prüfsubstanz gewonnenen Werten für die mittlere maximale Temperatursenkung wurde nach linearer Regressionsanalyse nach LINDER (s.o.) eine ED-1,5°C als jene Dosis berechnet, die eine Senkung der Körpertemperatur um 1,5°C bewirkte.
# Wärmeschmerz der Maus = experiment: Analgesic effect against heat pain in the mouse (hot plate, modified CHEN and BECKMAN); type: in vivo; conditions: oral (gavage), male Chbb:NMRI(SPF) mice, plate 52°C, dose giving 100 % prolongation of reaction time, read-out: Analgesie Maus "hot plate" [ED100]
# Description: 2) Wirkung gegen den Wärmeschmerz der Maus
# Die Prüfung erfolgte mit Hilfe einer Modifikation der Ver- suchsanordnung nach CHEN u. BECKMAN (Science 113, 631 (1951) an männlichen Chbb:NMRI(SPF)-Mäusen mit einem mittleren Gewicht von 20 g. Die "heiße Platte" bestand aus Aluminium und hatte eine Oberflächentemperatur von 52°C. ;
# Die Prüfsubstanz wurde als Verreibung in 1 %iger-Methylzellulose (0,1 ml/10 g maus) per Schlundsonde beigebracht. Vor der Behandlung mit Prüfsubstanz wurden die Tiere im Abstand von 30 min. zweimal auf die heiße Platte gesetzt. Es wurde ihre individuelle Reaktionszeit ermittelt. Nach Gabe der Prüfsubstanz wurde in Abständen von 30 min. die Reaktionszeit erneut gemessen.
# Aus der mit den verschiedenen Dosen der Prüfsubstanz erzielten gemittelten maximalen Verlängerung der Reaktionszeit wurde nach linearer Regressionsanalyse nach LINDER (s.o.) eine ED100 mit den Vertrauensgrenzen nach FIELLER (s.o.) als die Dosis berechnet, die zu einer 100 %igen Verlängerung der Reaktionszeit führte.
# [3] = test system: Entzündungsschmerz der Ratte; experiment: Analgesic effect against inflammatory pain in the rat (RANDALL-SELITTO, yeast-inflamed paw, pain threshold); type: in vivo; conditions: oral (gavage), male Chbb:THOM rats, dose raising the pain threshold by 50 % versus controls
# Description: 1) Wirkung gegen den Entzündungsschmerz der Ratte
# Die Versuchsanordnung entsprach der von RANDALL-SELITTO (Arch. int. Pharmacodyn. 111, 409 (1957) angegebenen.
# Männliche Chbb:THOM-Ratten mit einem Gewicht zwischen 100 und 130 g erhielten eine subplantare Injektion von 0,1 ml einer 5%igen Suspension von Hefezellen in 5,55 %iger Glukoselösun^g in eine Hinterpfote. […] 2 1/4 Stunden nach der Injektion des Phlogisticums erhielten die Tiere verschiedene Dosen der Prüfsubstanz als Verreibung in 1 %iger Methylzellulose (1 ml/100 g Tier) per Schlundsonde beigebracht. Kontrolltiere erhielten entsprechende Volumina des Vehikels. ― 90 bzw. 45 min nach Applikation der Prüfsubstanz (d.h. 3 Stunden nach der subplantaren Injektion der Hefesuspension) wurde bei den Ratten die Schmerzschwelle in g Auflagedruck/Pfote bestimmt.
# Aus der nach den verschiedenen Dosen der Prüfsubstanz ge- i messenen Schmerzschwelle wurde nach linearer Regressionsanalyse nach LINDER (Statistische Methoden, 4. Aufl. pp. 148-162, Birkhäuser, Basel 1964) eine ED50 mit den Vertrauensgrenzen nach FIELLER (Quart. J. Pharm. Pharmacol. 17, 117 (1944) als jene Dosis ermittelt, die eine Anhebung der Schmerzschwelle um 50 % gegenüber der der Kontrollen bewirkte.
smiles,measurement,setting,value
COc1cc2sc(N)nc2cc1Cl [2-Amino-5-chlor-6-methoxy-benzothiazol],LD50 at 336 h,[1],3050 mg/kg
same,ED (-1.5 degC),[2],101 mg/kg
same,ED100,Wärmeschmerz der Maus,144 mg/kg
same,ED50,"[3]; 0.75 h, 45 min after application, read-out: Analgesie Ratte nach RANDALL-SELITTO 45 min nach Appl. [ED50]",79 mg/kg
same,ED50,"[3]; 1.5 h, 90 min after application, read-out: Analgesie Ratte nach RANDALL-SELITTO 90 min nach Appl. [ED50]",80 mg/kg
